Test results: US20060116390A1, “Hepatitis c virus inhibitors” (priority 2003, published 2006)
Like-named read-outs stand apart in the source and are kept apart here.

System: HCV proteins in Rep5.1 cells (replicon cell line)
Experiment: Inhibitory activity of HCV: cell-based ELISA in replicon cell line Rep5.1 (decrease of HCV proteins)
Design: species or system hepatitis C virus
Settings: Rep5.1 cells, 72 hours with drug
Method in brief: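 Rep5.1 replicon cells (5000/well, DMEM-10 with 500 μg/ml G418) were given serially diluted drug 4 h after seeding. After 72 h, cells were fixed in methanol/acetone and HCV proteins detected by cell-based ELISA using replicon-specific patient plasma antibodies. IC50 is the concentration giving 50% protein decrease versus the no-drug control.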

[1] = Hepatitis C virus, 72 h, concentration at which 50% of HCV proteins was decreased, Table 2, read-out: IC50
[2] = Hepatitis C virus, 72 h, decrease of HCV proteins measured by HCV antibody, Table 1, read-out: Level (IC50 values classified)

SMILES: CC1=C(C(=O)OCC2CCCC2)CNC(=S)N1 [Compound 68, 6-methyl-2-thioxo-1,2,3,4-tetrahydro-pyrimidine-5-carboxylic acid cyclopentylmethyl ester]
- IC50 [1]: 700 nM
- IC50 [2]: < 1000 nM

SMILES: CC1=C(C(=O)OCc2ccc(C)c(C)c2)CNC(=S)N1 [Compound 76, 6-methyl-2-thioxo-1,2,3,4-tetrahydro-pyrimidine-5-carboxylic acid 3,4-dimethyl-benzyl ester]
- IC50 [1]: 600 nM
- IC50 [2]: < 1000 nM

SMILES: CCCC1=C(C(=O)OCc2ccccc2)CNC(=S)N1 [Compound 25, 6-propyl-2-thioxo-1,2,3,4-tetrahydro-pyrimidine-5-carboxylic acid benzyl ester]
- IC50 [1]: 2000 nM
- IC50 [2]: 1000 to 10000 nM

SMILES: CSCCCOC(=O)C1=C(C)NC(=S)NC1CF (stereo not shown) [63′, 4-fluoromethyl-6-methyl-2-thioxo-1,2,3,4-tetrahydro-pyrimidine-5-carboxylic acid 3-methylsulfanyl-propyl ester]
- IC50 [1]: > 100000 nM
- IC50 [2]: > 20000 nM

SMILES: C=CCOC(=O)C1=C(C)NC(=S)NC1 [Compound 16, 6-methyl-2-thioxo-1,2,3,4-tetrahydro-pyrimidine-5-carboxylic acid allyl ester]
- IC50 [1]: 74000 nM
- IC50 [2]: > 20000 nM

SMILES: CC1=C(C(=O)OC(C)Cc2ccsc2Br)C(CO)NC(=S)N1 (stereo not shown) [7″, 4-hydroxymethyl-6-methyl-2-thioxo-1,2,3,4-tetrahydro-pyrimidine-5-carboxylic acid 2-(2-bromo-thiophen-3-yl)-1-methyl-ethyl ester]
- IC50 [1]: 7000 nM
- IC50 [2]: 1000 to 10000 nM

SMILES: CC1=C(C(=O)OCCCCCCCCc2ccccc2)CNC(=S)N1 [Compound 33, 6-methyl-2-thioxo-1,2,3,4-tetrahydro-pyrimidine-5-carboxylic acid 8-phenyl-octyl ester]
- IC50 [1]: < 500 nM
- IC50 [2]: < 1000 nM

SMILES: CC1=C(C(=O)OCc2cc(C(F)(F)F)cc(C(F)(F)F)c2)CNC(=S)N1 [Compound 148, 6-methyl-2-thioxo-1,2,3,4-tetrahydro-pyrimidine-5-carboxylic acid 3,5-bis-trifluoromethyl-benzyl ester]
- IC50 [1]: < 400 nM
- IC50 [2]: < 1000 nM

SMILES: COc1ccc(COC(=O)C2=C(C)NC(=S)NC2)cc1Br [Compound 141, 6-methyl-2-thioxo-1,2,3,4-tetrahydro-pyrimidine-5-carboxylic acid 3-bromo-4-methoxy-benzyl ester]
- IC50 [1]: 700 nM
- IC50 [2]: < 1000 nM

SMILES: CC1=C(C(=O)OCc2cc3c(C)nn(C)c3s2)CNC(=S)N1 [Compound 223, 6-methyl-2-thioxo-1,2,3,4-tetrahydro-pyrimidine-5-carboxylic acid 1,3-dimethyl-1H-thieno[2,3-c]pyrazol-5-ylmethyl ester]
- IC50 [1]: 6000 nM
- IC50 [2]: 1000 to 10000 nM

SMILES: CC1=C(C(=O)OCC2CCCCC2)C(CF)NC(=S)N1 (stereo not shown) [51′, 4-fluoromethyl-6-methyl-2-thioxo-1,2,3,4-tetrahydro-pyrimidine-5-carboxylic acid cyclohexylmethyl ester]
- IC50 [1]: 5400 nM
- IC50 [2]: 1000 to 10000 nM

SMILES: CC1=C(C(=O)OCCc2cccc(C(F)(F)F)c2)C(CO)NC(=S)N1 (stereo not shown) [38″, 4-hydroxymethyl-6-methyl-2-thioxo-1,2,3,4-tetrahydro-pyrimidine-5-carboxylic acid 2-(3-trifluoromethyl-phenyl)-ethyl ester]
- IC50 [1]: < 400 nM
- IC50 [2]: < 1000 nM

SMILES: CC1=C(C(=O)OCCc2ccc(N3CCCCC3)c([N+](=O)[O-])c2)C(CO)NC(=S)N1 (stereo not shown) [100″, 4-Hydroxymethyl-6-methyl-2-thioxo-1,2,3,4-tetrahydro-pyrimidine-5-carboxylic acid 2-(3-nitro-4-piperidin-1-yl-phenyl)-ethyl ester]
- IC50 [1]: 900 nM
- IC50 [2]: < 1000 nM

SMILES: CC1=C(C(=O)OCC#Cc2ccccc2)CNC(=S)N1 [Compound 192, 6-methyl-2-thioxo-1,2,3,4-tetrahydro-pyrimidine-5-carboxylic acid 3-phenyl-prop-2-inyl ester]
- IC50 (concentration at which 50% of HCV proteins was decreased, Table 2, read-out: IC50): < 400 nM

SMILES: COc1ccccc1CCCOC(=O)C1=C(C)NC(=S)NC1 [Compound 104, 6-methyl-2-thioxo-1,2,3,4-tetrahydro-pyrimidine-5-carboxylic acid 3-(2-methoxy-phenyl)-propyl ester]
- IC50 [1]: < 400 nM
- IC50 [2]: < 1000 nM

SMILES: CCNC(=O)OCC1NC(=S)NC(C)=C1C(=O)OCCCc1cccs1 (stereo not shown) [20″, 4-ethylcarbamoyloxymethyl-6-methyl-2-thioxo-1,2,3,4-tetrahydro-pyrimidine-5-carboxylic acid 3-thiophen-2-yl-propyl ester]
- IC50 [1]: 33300 nM
- IC50 [2]: > 20000 nM

SMILES: COc1cc(COC(=O)C2=C(C)NC(=S)NC2)cc(OC)c1 [Compound 81, 6-methyl-2-thioxo-1,2,3,4-tetrahydro-pyrimidine-5-carboxylic acid 3,5-dimethoxy-benzyl ester]
- IC50 [1]: 3000 nM
- IC50 [2]: 1000 to 10000 nM

SMILES: CC1=C(C(=O)OCc2ccc(-c3cccs3)s2)C(CF)NC(=S)N1 (stereo not shown) [62′, 4-fluoromethyl-6-methyl-2-thioxo-1,2,3,4-tetrahydro-pyrimidine-5-carboxylic acid [2,2′]bithiophenyl-5-ylmethyl ester]
- IC50 [1]: 2000 nM
- IC50 [2]: 1000 to 10000 nM

SMILES: O=C(OCc1ccccc1)C1=C(Cc2ccccc2)NC(=S)NC1 [Compound 18, 6-benzyl-2-thioxo-1,2,3,4-tetrahydro-pyrimidine-5-carboxylic acid benzyl ester]
- IC50 [1]: 5000 nM
- IC50 [2]: 1000 to 10000 nM

SMILES: CC1=C(C(=O)OCCc2cc(Cl)ccc2[N+](=O)[O-])C(CO)NC(=S)N1 (stereo not shown) [54″, 4-hydroxymethyl-6-methyl-2-thioxo-1,2,3,4-tetrahydro-pyrimidine-5-carboxylic acid 2-(5-chloro-2-nitro-phenyl)-ethyl ester]
- IC50 [1]: 8000 nM
- IC50 [2]: 1000 to 10000 nM

SMILES: CCc1ccc(CCOC(=O)C2=C(C)NC(=S)NC2CO)cc1F (stereo not shown) [72″, 4-hydroxymethyl-6-methyl-2-thioxo-1,2,3,4-tetrahydro-pyrimidine-5-carboxylic acid 2-(4-ethyl-3-fluoro-phenyl)-ethyl ester]
- IC50 [1]: 400 nM
- IC50 [2]: < 1000 nM

SMILES: CC1=C(C(=O)OCCCCc2ccsc2)C(CF)NC(=S)N1 (stereo not shown) [61′, 4-fluoromethyl-6-methyl-2-thioxo-1,2,3,4-tetrahydro-pyrimidine-5-carboxylic acid 4-thiophen-3-yl-butyl ester]
- IC50 [1]: 3000 nM
- IC50 [2]: 1000 to 10000 nM

SMILES: CC1=C(C(=O)OCCc2ccc(Cl)cc2)CNC(=S)N1 [Compound 94, 6-methyl-2-thioxo-1,2,3,4-tetrahydro-pyrimidine-5-carboxylic acid 2-(4-chloro-phenyl)-ethyl ester]
- IC50 [1]: < 400 nM
- IC50 [2]: < 1000 nM

SMILES: COCCN(C)c1ccc(CCCOC(=O)C2=C(C)NC(=S)NC2CF)cc1 (stereo not shown) [59′, 4-fluoromethyl-6-methyl-2-thioxo-1,2,3,4-tetrahydro-pyrimidine-5-carboxylic acid 3-{4-[(2-methoxy-ethyl)-methyl-amino]-phenyl}-propyl ester]
- IC50 [1]: 34000 nM
- IC50 [2]: > 20000 nM

SMILES: CC1=C(C(=O)OCCc2ccc(Cl)cc2)C(CO)NC(=S)N1 (stereo not shown) [35″, 4-hydroxymethyl-6-methyl-2-thioxo-1,2,3,4-tetrahydro-pyrimidine-5-carboxylic acid 2-(4-chloro-phenyl)-ethyl ester]
- IC50 [1]: 1600 nM
- IC50 [2]: 1000 to 10000 nM

SMILES: CC1=C(C(=O)OCc2cc([N+](=O)[O-])ccc2Cl)C(CF)NC(=S)N1 (stereo not shown) [83′, 4-fluoromethyl-6-methyl-2-thioxo-1,2,3,4-tetrahydro-pyrimidine-5-carboxylic acid 2-chloro-5-nitro-benzyl ester]
- IC50 [1]: 5700 nM
- IC50 [2]: 1000 to 10000 nM

SMILES: CC1=C(C(=O)OCc2ccccc2)C(CF)NC(=S)N1 (stereo not shown) [Compound 211, 4-fluoromethyl-6-methyl-2-thioxo-1,2,3,4-tetrahydro-pyrimidine-5-carboxylic acid benzyl ester]
- IC50 [1]: 16000 nM
- IC50 [2]: 10000 to 20000 nM

SMILES: CC(=O)Oc1ccccc1CCC(=O)OCC1NC(=S)NC(C)=C1C(=O)OCCc1cccc([N+](=O)[O-])c1 (stereo not shown) [81″, 4-[3-(2-acetoxy-phenyl)-propionyloxymethyl]-6-methyl-2-thioxo-1,2,3,4-tetrahydro-pyrimidine-5-carboxylic acid 2-(3-nitro-phenyl)-ethyl ester]
- IC50 [1]: 6500 nM
- IC50 [2]: 1000 to 10000 nM

SMILES: CCOc1ccccc1COC(=O)C1=C(C)NC(=S)NC1 [Compound 66, 6-methyl-2-thioxo-1,2,3,4-tetrahydro-pyrimidine-5-carboxylic acid 2-ethoxy-benzyl ester]
- IC50 [1]: 500 nM
- IC50 [2]: < 1000 nM

SMILES: CC1=C(C(=O)OCc2scc(C)c2Cl)C(CF)NC(=S)N1 (stereo not shown) [15′, 4-fluoromethyl-6-methyl-2-thioxo-1,2,3,4-tetrahydro-pyrimidine-5-carboxylic acid 3-chloro-4-methyl-thiophen-2-ylmethyl ester]
- IC50 [1]: 1000 nM
- IC50 [2]: < 1000 nM

SMILES: CC1=C(C(=O)OCCc2ccsc2F)CNC(=S)N1 [Compound 249, 6-methyl-2-thioxo-1,2,3,4-tetrahydro-pyrimidine-5-carboxylic acid 2-(2-fluoro-thiophen-3-yl)-ethyl ester]
- IC50 [1]: < 400 nM
- IC50 [2]: < 1000 nM

SMILES: CC1=C(C(=O)OCc2cc(Cl)cc(Cl)c2)CNC(=S)N1 [Compound 131, 6-methyl-2-thioxo-1,2,3,4-tetrahydro-pyrimidine-5-carboxylic acid 3,5-dichloro-benzyl ester]
- IC50 [1]: < 400 nM
- IC50 [2]: < 1000 nM

SMILES: CC1=C(C(=O)SCCc2ccccc2)C(CF)NC(=S)N1 (stereo not shown) [88′, 4-fluoromethyl-6-methyl-2-thioxo-1,2,3,4-tetrahydro-pyrimidine-5-carbothioic acid S-phenethyl ester]
- IC50 [1]: 400 nM
- IC50 [2]: < 1000 nM

SMILES: CC1=C(C(=O)OCc2ccc(F)cc2Cl)CNC(=S)N1 [Compound 70, 6-methyl-2-thioxo-1,2,3,4-tetrahydro-pyrimidine-5-carboxylic acid 2-chloro-4-fluoro-benzyl ester]
- IC50 [1]: < 500 nM
- IC50 [2]: < 1000 nM
